Source: patent publication US20240246964A1 (Arbutus Biopharma Corporation, priority 2021, published 2024)

Key:
[1] = target: PD-L1 His protein / PD-1 Fc protein (Homo sapiens (Human), UniProt Q9NZQ7); experiment: HTRF Assay (PD-1/PD-L1 interaction); format: binding; details: PD-L1 His 6 nM, PD-1 Fc 6 nM
human PD-L1 = human PD-L1 (Homo sapiens (Human), UniProt Q9NZQ7); experiment: T cell activation luciferase reporter cell culture system (T Cell Activation Assay); format: cell-based; details: luciferase reporter assay; PD-L1 aAPC/CHO-K1 cells with PD-1 effector Jurkat T cells
Sequence of human PD-L1 (Q9NZQ7 19-290): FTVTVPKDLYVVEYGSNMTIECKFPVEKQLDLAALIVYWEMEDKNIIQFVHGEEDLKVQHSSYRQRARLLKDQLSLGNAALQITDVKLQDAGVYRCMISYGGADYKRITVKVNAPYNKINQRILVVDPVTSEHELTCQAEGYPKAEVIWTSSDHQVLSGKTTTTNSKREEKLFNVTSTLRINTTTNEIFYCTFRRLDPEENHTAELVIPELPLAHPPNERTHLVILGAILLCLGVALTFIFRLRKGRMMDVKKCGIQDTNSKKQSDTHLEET

Sequence of PD-L1 His protein / PD-1 Fc protein (Q9NZQ7 19-238): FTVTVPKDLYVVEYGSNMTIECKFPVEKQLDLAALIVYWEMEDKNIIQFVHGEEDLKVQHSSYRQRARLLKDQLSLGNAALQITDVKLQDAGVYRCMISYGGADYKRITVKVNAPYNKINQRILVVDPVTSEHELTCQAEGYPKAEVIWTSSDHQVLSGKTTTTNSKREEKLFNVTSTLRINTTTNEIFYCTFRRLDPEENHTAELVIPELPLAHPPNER

Row | Structure (SMILES) | IC50 [1] | EC50 (human PD-L1)
1 | COc1nc(-c2ccnc(-c3cccc4c3CC[C@@H]4Nc3nc(OC)c(CNC4(C(=O)O)CC4)cc3C(F)(F)F)c2Cl)ccc1CNC[C@@H]1CCC(=O)N1 [Compound 164, 1-(((6-(((S)-4-(3′-chloro-6-methoxy-5-(((((S)-5-oxopyrrolidin-2-yl)methyl)amino)methyl)-[2,4′-bipyridin]-2′-yl)-2,3-dihydro-1H-inden-1-yl)amino)-2-methoxy-5-(trifluoromethyl)pyridine-3-yl)methyl)amino)cyclopropane-1-carboxylic acid] | 0.49 nM | 66.6 nM
2 | COc1nc(-c2ccnc(-c3cccc4c3CC[C@@H]4Oc3nc(OC)c(CNC[C@@H](C)O)cc3C(F)(F)F)c2Cl)ccc1CNC[C@@H]1CCC(=O)N1 [Compound 165, (S)-5-((((3′-chloro-2′-((S)-1-((5-((( ®-2-hydroxypropyl)amino)methyl)-6-methoxy-3-(trifluoromethyl)pyridine-2-yl)oxy)-2,3-dihydro-1H-inden-4-yl)-6-methoxy-[2,4′-bipyridin]-5-yl)methyl)amino)methyl)pyridine1332ne-2-one] | 0.35 nM | 4.15 nM
3 | COc1nc(-c2ccnc(-c3cccc4c3CC[C@@H]4Oc3nc(OC)c(CNC[C@@H]4CCC(=O)N4)cc3C(F)(F)F)c2Cl)ccc1CNC[C@@H]1CCC(=O)N1 [Compound 166, (S)-5-((((3′-chloro-6-methoxy-2′-((S)-1-((6-methoxy-5-(((((S)-5-oxopyrrolidin-2-yl)methyl)amino)methyl)-3-(trifluoromethyl)pyridine-2-yl)oxy)-2,3-dihydro-1H-inden-4-yl)-[2,4′-bipyridin]-5-yl)methyl)amino)methyl)pyridine1332ne-2-one] | 0.18 nM | 1.98 nM
4 | COc1nc(-c2cccc(-c3ccnc(-c4ccc5c(CNC6CCN(C(C)=O)CC6)nn(C)c5c4)c3Cl)c2Cl)ccc1CNC[C@@H]1CCC(=O)N1 [Compound 167, (S)-5-((((6-(3-(2-(3-(((1-acetylpiperidin-4-yl)amino)methyl)-1-methyl-1H-indazol-6-yl)-3-chloropyridin-4-yl)-2-chlorophenyl)-2-methoxypyridin-3-yl)methyl)amino)methyl)pyridine1332ne-2-one] | 1.47 nM | 18.4 nM
5 | COc1nc(-c2cccc(-c3ccnc(-c4ccc5c(CN(C)C6CCN(C(C)=O)CC6)nn(C)c5c4)c3Cl)c2Cl)ccc1CNC[C@@H]1CCC(=O)N1 [Compound 168, (S)-5-((((6-(3-(2-(3-(((1-acetylpiperidin-4-yl)(methyl)amino)methyl)-1-methyl-1H-indazol-6-yl)-3-chloropyridin-4-yl)-2-chlorophenyl)-2-methoxypyridin-3-yl)methyl)amino)methyl)pyridine1332ne-2-one] | 3.6 nM | 12.5 nM
6 | CNCc1ccc(-c2cccc(-c3ccnc(-c4cc(CNC[C@@H](O)CC(=O)O)cc(OC)c4)c3Cl)c2Cl)nc1OC [Compound 169, (S)-4-((3-(3-chloro-4-(2-chloro-3-(6-methoxy-5-((methylamino)methyl)pyridine-2-yl)phenyl)pyridine-2-yl)-5-methoxybenzyl)amino)-3-hydroxybutanoic acid] | 1.85 nM | 632 nM
7 | CNCc1ccc(-c2cccc(-c3ccnc(-c4cc(CNCCC(=O)O)cc(OC)c4)c3Cl)c2Cl)nc1OC [Compound 170, 3-((3-(3-chloro-4-(2-chloro-3-(6-methoxy-5-((methylamino)methyl)pyridine-2-yl)phenyl)pyridine-2-yl)-5-methoxybenzyl)amino)propanoic acid] | 0.73 nM | 415 nM
8 | CNCc1ccc(-c2cccc(-c3ccnc(-c4cc(CN5CC[C@H](C(=O)O)C5)cc(OC)c4)c3Cl)c2Cl)nc1OC [Compound 171, (S)-1-(3-(3-chloro-4-(2-chloro-3-(6-methoxy-5-((methylamino)methyl)pyridine-2-yl)phenyl)pyridine-2-yl)-5-methoxybenzyl)pyrrolidine-3-carboxylic acid] | 1.65 nM | 670 nM
9 | CNCc1ccc(-c2cccc(-c3ccnc(-c4cc(CN5CC(CC(=O)O)C5)cc(OC)c4)c3Cl)c2Cl)nc1OC [Compound 172, 2-(1-(3-(3-chloro-4-(2-chloro-3-(6-methoxy-5-((methylamino)methyl)pyridine-2-yl)phenyl)pyridine-2-yl)-5-methoxybenzyl)pyridine1333-3-yl)acetic acid] | 3.32 nM | ≥ 10000 nM
10 | CNCc1ccc(-c2cccc(-c3ccnc(-c4cc(CN5CC6(CC(C(=O)O)C6)C5)cc(OC)c4)c3Cl)c2Cl)nc1OC [Compound 173, 2-(3-(3-chloro-4-(2-chloro-3-(6-methoxy-5-((methylamino)methyl)pyridine-2-yl)phenyl)pyridine-2-yl)-5-methoxybenzyl)-2-azaspiro[3.3]heptane-6-carboxylic acid] | 32.1 nM | ≥ 10000 nM
11 | CNCc1ccc(-c2cccc(-c3ccnc(-c4cc(CNC56CC(C(=O)O)(C5)C6)cc(OC)c4)c3Cl)c2Cl)nc1OC [Compound 174, 3-((3-(3-chloro-4-(2-chloro-3-(6-methoxy-5-((methylamino)methyl)pyridine-2-yl)phenyl)pyridine-2-yl)-5-methoxybenzyl)amino)bicyclo[1.1.1]pentane-1-carboxylic acid] | 23.6 nM | ≥ 10000 nM
12 | CNCc1ccc(-c2cccc(-c3ccnc(-c4cc(CNCC56CC(C(=O)O)(C5)C6)cc(OC)c4)c3Cl)c2Cl)nc1OC [Compound 175, 3-(((3-(3-chloro-4-(2-chloro-3-(6-methoxy-5-((methylamino)methyl)pyridine-2-yl)phenyl)pyridine-2-yl)-5-methoxybenzyl)amino)methyl)bicyclo[1.1.1]pentane-1-carboxylic acid] | 8.73 nM | 1160 nM
13 | COc1cc(-c2nccc(-c3cccc(-c4cc(F)c(CNC[C@@H]5CCC(=O)N5)c(OC)n4)c3Cl)c2Cl)cc2c1CN(C[C@H](C)O)CC2 [Compound 176, (S)-5-((((6-(2-chloro-3-(3-chloro-2-(2-((S)-2-hydroxypropyl)-8-methoxy-1,2,3,4-tetrahydroisoquinolin-6-yl)pyridine-4-yl)phenyl)-4-fluoro-2-methoxypyridin-3-yl)methyl)amino)methyl)pyridine1334ne-2-one] | 1.05 nM | 9.99 nM
14 | COc1nc(-c2cccc(-c3ccnc(-c4ccc5c(c4)S(=O)(=O)CCNC5)c3Cl)c2Cl)ccc1CNC[C@@H]1CCC(=O)N1 [Compound 177, (S)-5-((((6-(2-chloro-3-(3-chloro-2-(1,1-dioxido-2,3,4,5-tetrahydrobenzo[f][1,4]pyridine1334n-8-yl)pyridine-4-yl)phenyl)-2-methoxypyridin-3-yl)methyl)amino)methyl)pyridine1334ne-2-one] | 1.76 nM | 176 nM
15 | COc1nc(-c2cccc(-c3ccnc(-c4ccc5c(c4)CN(CCNC[C@@H]4CCC(=O)N4)C5=O)c3Cl)c2Cl)cc(F)c1CNC[C@@H]1CCC(=O)N1 [Compound 178, 5-(3-chloro-4-(2-chloro-3-(4-fluoro-6-methoxy-5-(((((S)-5-oxopyrrolidin-2-yl)methyl)amino)methyl)pyridine-2-yl)phenyl)pyridine-2-yl)-2-(2-((((S)-5-oxopyrrolidin-2-yl)methyl)amino)ethyl)isoindolin-1-one] | 1.25 nM | 144 nM
16 | COc1cc(-c2nccc(-c3cccc(-c4ccc(CNC[C@@H]5CCC(=O)N5)c(OC)n4)c3Cl)c2Cl)ccc1C1=NCCN1 [Compound 179, (S)-5-((((6-(2-chloro-3-(3-chloro-2-(4-(4,5-dihydro-1H-imidazol-2-yl)-3-methoxyphenyl)pyridine-4-yl)phenyl)-2-methoxypyridin-3-yl)methyl)amino)methyl)pyridine1334ne-2-one] | 2.45 nM | 30.8 nM
17 | COc1cc(-c2nccc(-c3cccc(-c4ccc(C5=NCCN5)c(OC)n4)c3Cl)c2Cl)ccc1CNC[C@@H](O)CC(=O)O [Compound 180, (S)-4-((4-(3-chloro-4-(2-chloro-3-(5-(4,5-dihydro-1H-imidazol-2-yl)-6-methoxypyridin-2-yl)phenyl)pyridine-2-yl)-2-methoxybenzyl)amino)-3-hydroxybutanoic acid] | 5.64 nM | 35.9 nM
18 | COc1cc(-c2nccc(-c3cccc(-c4ccc(CNC[C@@H]5CCC(=O)N5)c(OC)n4)c3Cl)c2Cl)cc(F)c1CNC[C@@H]1CCO1 [Compound 181, (S)-5-((((6-(2-chloro-3-(3-chloro-2-(3-fluoro-5-methoxy-4-(((((S)-oxetan-2-yl)methyl)amino)methyl)phenyl)pyridine-4-yl)phenyl)-2-methoxypyridin-3-yl)methyl)amino)methyl)pyridine1335ne-2-one] | 11.2 nM | 30.5 nM
19 | COC(=O)C1CN(Cc2nn3cc(-c4nccc(-c5cccc(-c6ccc(CNC[C@@H]7CCC(=O)N7)c(OC)n6)c5Cl)c4Cl)cc3c(=O)n2C)C1 [Compound 182, methyl (S)-1-((6-(3-chloro-4-(2-chloro-3-(6-methoxy-5-((((5-oxopyrrolidin-2-yl)methyl)amino)methyl)pyridine-2-yl)phenyl)pyridine-2-yl)-3-methyl-4-oxo-3,4-dihydropyrrolo[2,1-f][1,2,4]pyridine-2-yl)methyl)azetidine-3-carboxylate] | 2.46 nM | 38.7 nM
20 | COc1nc(-c2cccc(-c3ccnc(-c4ccc5c(CNC[C@@H]6CCC(=O)N6)nn(C)c5c4)c3Cl)c2Cl)ccc1CNC[C@@H]1CCC(=O)N1 [Compound 183, (S)-5-((((6-(2-chloro-3-(3-chloro-2-(1-methyl-3-(((((S)-5-oxopyrrolidin-2-yl)methyl)amino)methyl)-1H-indazol-6-yl)pyridine-4-yl)phenyl)-2-methoxypyridin-3-yl)methyl)amino)methyl)pyridine1335ne-2-one] | 2.95 nM | 44.9 nM
